Where two headings read alike, the source gives them in different places.
Experiments:
[1] = test system: Col1a1; settings: 10 μM; precision cut lung slices cultured for 3 days; aged mice (24 months) injured with bleomycin
[2] = test system: YAP/TAZ nuclear localization in human lung fibroblasts; experiment: YAP/TAZ nuclear localization in human lung fibroblasts (FIG. 1)
[3] = test system: YAP/TAZ; experiment: Inhibition of YAP/TAZ (Example B-1, Table 4); type: cell-based
Excerpt: (§1) Example B-1: Enzyme Assay of Inhibition of YAP/TAZ and DR1

[4] = biological target: T1, DR1 (Homo sapiens, UniProt P21728); experiment: DR1 agonism EC50 (Example B-1, Table 4); type: cell-based
T1 construct: endogenous in cells; host or cells: IPF patient derived fibroblasts
Procedure: cAMP Assay: IPF patient derived fibroblasts are plated in EMEM containing 10% FBS overnight. […] Twenty minutes prior to cell lysis the media is removed and cells are treated with “induction buffer” containing nonselective phosphodiesterase inhibitors and the indicated concentration of compound(s). Luminescence is measured on a Flexstation 3 (Molecular Devices) plate reader.
as §1

T1 sequence (P21728 whole entry): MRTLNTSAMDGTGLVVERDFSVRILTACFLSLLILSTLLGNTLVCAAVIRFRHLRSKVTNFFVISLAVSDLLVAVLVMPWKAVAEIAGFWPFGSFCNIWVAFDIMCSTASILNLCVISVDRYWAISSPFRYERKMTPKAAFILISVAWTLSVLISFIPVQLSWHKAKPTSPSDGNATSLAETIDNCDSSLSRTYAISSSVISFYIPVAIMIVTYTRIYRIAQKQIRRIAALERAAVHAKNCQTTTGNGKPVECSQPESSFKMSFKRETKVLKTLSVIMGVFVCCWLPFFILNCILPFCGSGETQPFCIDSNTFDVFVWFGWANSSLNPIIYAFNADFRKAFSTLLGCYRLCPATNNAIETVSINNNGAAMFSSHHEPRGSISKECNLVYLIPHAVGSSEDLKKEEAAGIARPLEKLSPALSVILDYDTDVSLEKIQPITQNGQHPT

Compound | expression of Col1a1 [1] | inhibition of YAP/TAZ nuclear localization [2] | IC50 [3] | EC50 ([4]; read-out: DR1 EC50) | EC50 [4]
Cc1cc2c(cc1O)CN[C@H]1CCc3cc(O)c(O)cc3[C@H]21 (relative stereo) [Compound 3, Trans-(6a,12b)-2-methyl-5,6,6a,7,8,12b-hexahydro-benzo[a]phenanthridine-3,10,11-triol] | inhibits expression of Col1a1 | inhibit YAP/TAZ nuclear localization |  |  | 
COc1c(O)cc(C2CNCc3sccc32)cc1Cl (centres unmarked) [3-chloro-2-methoxy-5-(4,5,6,7-tetrahydrothieno[2,3-c]pyridin-4-yl)phenol] |  |  | 1 to 20 µM | 1 to 20 µM | 
Oc1cc(C2CNCc3sccc32)cc(Cl)c1O (centres unmarked) [3-chloro-5-(4,5,6,7-tetrahydrothieno[2,3-c]pyridin-4-yl)benzene-1,2-diol] |  |  | 1 to 20 µM | < 1 µM | 
Oc1ccc(C2CNCc3cnccc32)cc1O (centres unmarked) [4-(1,2,3,4-tetrahydro-2,7-naphthyridin-4-yl)benzene-1,2-diol] |  |  | 1 to 20 µM |  | 
CCCc1csc2c1C(c1ccc(OC)c(OC)c1)CNC2 (centres unmarked) [4-(3,4-dimethoxyphenyl)-3-propyl-4,5,6,7-tetrahydrothieno[2,3-c]pyridine] |  |  | 1 to 20 µM | 1 to 20 µM | 
COc1ccc(C2CNCc3sccc32)cc1OC (centres unmarked) [4-(3,4-dimethoxyphenyl)-4,5,6,7-tetrahydrothieno[2,3-c]pyridine] |  |  | 1 to 20 µM | 1 to 20 µM | 
COc1cc(C2CNCc3sccc32)cc(Cl)c1OC (centres unmarked) [4-(3-chloro-4,5-dimethoxyphenyl)-4,5,6,7-tetrahydrothieno[2,3-c]pyridine] |  |  | 1 to 20 µM | 1 to 20 µM | 
CCCc1csc2c1C(c1ccc(O)c(O)c1)CNC2 (centres unmarked) [4-(3-propyl-4,5,6,7-tetrahydrothieno[2,3-c]pyridin-4-yl)benzene-1,2-diol] |  |  | 1 to 20 µM | 1 to 20 µM | 
CN1Cc2sccc2C(c2ccc(O)c(O)c2)C1 (centres unmarked) [4-(6-methyl-4,5,6,7-tetrahydrothieno[2,3-c]pyridin-4-yl)benzene-1,2-diol] |  |  | 1 to 20 µM | 1 to 20 µM | 
Oc1cc2c(cc1O)[C@@H]1c3ccc(O)c(O)c3CN[C@@H]1CC2 [(6aR,12bR)-5,6,6a,7,8,12b-hexahydrobenzo[a]phenanthridine-3,4,10,11-tetraol] |  |  | 1 to 20 µM |  | 
Oc1ccc2c(c1)[C@@H]1c3cc(O)c(O)cc3CC[C@H]1NC2 [(6aR,12bS)-5,6,6a,7,8,12b-hexahydrobenzo[a]phenanthridine-2,10,11-triol] |  |  | 1 to 20 µM |  | < 1 µM
Oc1cc2c(cc1O)[C@H]1c3ccc(O)c(O)c3CN[C@@H]1CC2 [(6aR,12bS)-5,6,6a,7,8,12b-hexahydrobenzo[a]phenanthridine-3,4,10,11-tetraol] |  |  | 1 to 20 µM |  | 
Cc1cc2c(cc1O)CN[C@H]1CCc3cc(O)c(O)cc3[C@H]21 [(6aS,12bR)-2-methyl-5,6,6a,7,8,12b-hexahydrobenzo[a]phenanthridine-3,10,11-triol] |  |  | 1 to 20 µM |  | < 1 µM
CCCc1csc2c1[C@@H](c1ccc(O)c(O)c1)CNC2 [(R)-4-(3-propyl-4,5,6,7-tetrahydrothieno[2,3-c]pyridin-4-yl)benzene-1,2-diol] |  |  | 1 to 20 µM | 1 to 20 µM | 
Oc1ccc([C@H]2CNCc3sccc32)cc1O [(R)-4-(4,5,6,7-tetrahydrothieno[2,3-c]pyridin-4-yl)benzene-1,2-diol] |  |  | 1 to 20 µM | < 1 µM | 
CCCc1csc2c1[C@H](c1ccc(O)c(O)c1)CNC2 [(S)-4-(3-propyl-4,5,6,7-tetrahydrothieno[2,3-c]pyridin-4-yl)benzene-1,2-diol] |  |  | 1 to 20 µM | 1 to 20 µM | 
Oc1ccc([C@@H]2CNCc3sccc32)cc1O [(S)-4-(4,5,6,7-tetrahydrothieno[2,3-c]pyridin-4-yl)benzene-1,2-diol] |  |  | 1 to 20 µM | < 1 µM | 
(6aR,12bS)-10,11-dimethoxy-2-methyl-5,6,6a,7,8,12b-hexahydrobenzo[a]phenanthridin-3-ol [Compound 4a] |  | inhibit YAP/TAZ nuclear localization |  |  | 

Source: US20220267277A1, “DOPAMINE RECEPTOR D1 AGONISTS AND METHODS OF USE” (Sanford Burnham Prebys Medical Discovery Institute, priority 2019, published 2022)
